{"source": "patent US20060099235A1", "about": "“Medical devices and compositions useful for treating or inhibiting restenosis” (Medtronic Vascular, Inc., priority 2004, published 2006)", "key": {"[1]": {"test_system": "human coronary artery smooth muscle cells (hCASMCs)", "assay": "CellTiter-Glo Luminescent Cell Viability (proliferation) assay, 3-day exposure", "format": "cell-based", "procedure": "(§1) Leptomycin B's anti-proliferative efficacy was tested at different concentrations (0.01 nM, 0.1 nM, 1.0 nM, 10.0 nM, 100 nM and 1000 nM) using a three day exposure to hCASMC. The same experiment was performed twice at two separate times to ascertain leptomycin's effect on cell proliferation using a cell viability assay, and the cell phenotype through a qualitative observation of cell morphology following the 3-day exposure to leptomycin B.\nThe CellTiter-Glo® Luminescent Cell Viability Assay (Promega Corporation, Madison, Wis.) is a method of determining the number of viable cells in culture based on the quantitation of ATP, as an indicator of metabolically active cells (proliferating). A single reagent is added to cells directly in culture, this reagent lyses the cells and provides the luciferase enzyme that reacts with the liberated ATP to create a luminescent signal.\nTwenty-four well plates were seeded with hCASMC at 5×10^3 cells per well (n=3) using methods know to those skilled in the art of cell culture. For example and not intended as a limitation: Materials • 1. Human coronary smooth muscles cells (HCASMC) are obtained from Clonetics, a division of Cambrex, Inc. • 2. HCASMC basal media, supplied by Clonetics and supplemented with fetal bovine serum, insulin, hFGF-B (human fibroblast growth factor) hEGF (human epidermal growth factor). • 3. Leptomycin B was purchased from LC Laboratories. Wobum, Mass., USA catalogue number L-6100 • 4. Absolute methanol • 5. Twenty-four well polystyrene tissue culture plates\nDilutions of the drug were made in serum-free cell culture media from the stock solution. A volume of 100 μL of each dilution was added to designated wells. […]\nThe CellTiter-Glo® Luminescent Cell Viability Assay (Promega Corporation, Madison, Wis.) was performed to assess percent viability. The CellTiter-Glo® Luminescent Cell Viability Assay is a homogeneous method of determining the number of viable cells in culture based on quantitation of the ATP present, which signals the presence of metabolically active cells. […]"}, "[2]": {"test_system": "human coronary artery smooth muscle cells (hCASMCs)", "assay": "Microscopic evaluation of cell morphology after 3-day exposure", "format": "cell-based", "conditions": "hCASMC, 3 days", "procedure": "as §1\nThe evaluation of cell phenotype on drug-treated wells was performed by optical microscopy observation and capture of representative images at 200× (total magnification). Microscopic evaluation and pictures were performed before the proliferation assay was done on the 24-well drug-treated plate.\nRepresentative microphotographs (See FIGS. 8-14) of cells exposed to different concentrations of leptomycin B for a period of three days. HCASMCs cultured in the absence of the drug (FIG. 8) reached a ˜90% confluency with the expected healthy phenotype at three days (duration of the assay), providing an adequate control."}}, "data": [{"smiles": "CCC(=C/[C@H](C)C/C=C/C(C)=C/[C@@H](C)C(=O)[C@@H](C)[C@H](O)[C@@H](C)C/C(C)=C/C(=O)O)/C=C/[C@@H]1OC(=O)C=C[C@@H]1C", "note": "[leptomycin B, 2,10,12,16,18-nonadecapentaenoic acid]", "values": [{"measurement": "effect on human coronary artery smooth muscle cell proliferation", "setting": "[1]; 0.01-1000 nM, two trials (FIGS. 6 and 7)", "value": "inhibitory effect"}, {"measurement": "concentration showing inhibitory effect on hCASMC proliferation in vitro", "setting": "[1]; concentrations as low as", "value": "≥ 1", "unit": "nM"}, {"measurement": "nature of the effect (cytostatic vs cytotoxic)", "setting": "[1]; hCASMC", "value": "predominantly cytostatic rather than cytotoxic"}, {"measurement": "microscopic signs of cytotoxicity", "setting": "[2]; 0.01-1000 nM", "value": "No microscopic signs of cytotoxicity"}, {"measurement": "level of confluence", "setting": "[2]; 200x optical microscopy, control ~90% confluency", "value": "decreased level of confluence"}]}]}
